From US8343983B2, “Substituted pyrazolo-pyrimidine compounds” (ArQule, Inc., priority 2009, dated 2013)
Read-outs that look alike come from different tables or passages of the source.

System: cancer cells
Assay: MTS assay: inhibition of cell growth (formazan absorbance at 492 nm after 72 hours with test compound)
Type: cell-based
Conditions: inhibition class
Method in brief: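 DMEM with 1% FBS; cells seeded at 3000/well and grown 18 h at 37 °C, then exposed to compound for 72 h and to MTS/PMS for 4 h. IC50 is the concentration giving a 50% absorbance drop; grades are % inhibition bands.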

[1] = Homo sapiens, DLD-1 cells, read-out: DLD-1, MTS 72 hours at 10 uM
[2] = Homo sapiens, KATO III cells, read-out: KATO III, MTS 72 hours at 10 uM
[3] = Homo sapiens, MDA-MB-231 cells, read-out: MDA-MB-231, MTS 72 hours at 10 uM
[4] = Homo sapiens, NCI-H1299 cells, read-out: NCI-H1299, MTS 72 hours at 10 uM
[5] = Homo sapiens, PC-3 cells, read-out: PC-3, MTS 72 hours at 10 uM
[6] = PACA-2 cells, read-out: PACA-2, MTS 72 hours at 10 uM

SMILES | inhibition at 10 µM [1] [%] | inhibition at 10 µM [2] [%] | inhibition at 10 µM [3] [%] | inhibition at 10 µM [4] [%] | inhibition at 10 µM [5] [%] | inhibition at 10 µM [6] [%]
COc1ccc(CN2CCc3n[nH]c4nc(NC5Cc6ccccc6C5)nc2c34)cc1 [Compound 106, N-(2,3-dihydro-1H-inden-2-yl)-6-(4-methoxybenzyl)-2,6,7,8-tetrahydro-1,2,3,5,6-pentaazaacenaphthylen-4-amine] | > 79 | > 79 | < 50 | 50 to 79 | < 50 | 50 to 79
COc1ccc(CN2CCc3n[nH]c4nc(NC5CCCCC5)nc2c34)cc1 [Compound 107, N-cyclohexyl-6-(4-methoxybenzyl)-2,6,7,8-tetrahydro-1,2,3,5,6-pentaazaacenaphthylen-4-amine] | < 50 | < 50 | < 50 | < 50 | < 50 | < 50
COc1ccc(CN2CCc3n[nH]c4nc(NCCOc5ccccc5)nc2c34)cc1 [Compound 108, 6-(4-methoxybenzyl)-N-(2-phenoxyethyl)-2,6,7,8-tetrahydro-1,2,3,5,6-pentaazaacenaphthylen-4-amine] | 50 to 79 | < 50 | < 50 | < 50 | < 50 | > 79
COc1ccc(CN2CCc3n[nH]c4nc(NCCc5ccc(F)cc5)nc2c34)cc1 [Compound 109, N-[2-(4-fluorophenyl)ethyl]-6-(4-methoxybenzyl)-2,6,7,8-tetrahydro-1,2,3,5,6-pentaazaacenaphthylen-4-amine] | 50 to 79 | 50 to 79 | < 50 | 50 to 79 | < 50 | 50 to 79
COc1ccc(CN2CCc3n[nH]c4nc(N5CCOCC5)nc2c34)cc1 [Compound 110, 6-(4-methoxybenzyl)-4-morpholin-4-yl-2,6,7,8-tetrahydro-1,2,3,5,6-pentaazaacenaphthylene] | < 50 | < 50 | < 50 | < 50 | < 50 | < 50
COc1ccc(CN2CCc3n[nH]c4nc(NC5CCN(C)CC5)nc2c34)cc1 [Compound 111, 6-(4-methoxybenzyl)-N-(1-methylpiperidin-4-yl)-2,6,7,8-tetrahydro-1,2,3,5,6-pentaazaacenaphthylen-4-amine] | < 50 | < 50 | < 50 | < 50 | < 50 | < 50
COc1ccc(CN2CCc3n[nH]c4nc(NCc5ccccc5Cl)nc2c34)cc1 [Compound 112, N-(2-chlorobenzyl)-6-(4-methoxybenzyl)-2,6,7,8-tetrahydro-1,2,3,5,6-pentaazaacenaphthylen-4-amine] | > 79 | > 79 | > 79 | < 50 | > 79 | > 79
COc1ccc(CN2CCc3n[nH]c4nc(NCc5cccc(F)c5)nc2c34)cc1 [Compound 113, N-(3-fluorobenzyl)-6-(4-methoxybenzyl)-2,6,7,8-tetrahydro-1,2,3,5,6-pentaazaacenaphthylen-4-amine] | > 79 | < 50 | 50 to 79 | < 50 | > 79 | > 79
COc1ccc(CN2CCc3n[nH]c4nc(N5CCN(Cc6ccccc6)CC5)nc2c34)cc1 [Compound 114, 4-(4-benzylpiperazin-1-yl)-6-(4-methoxybenzyl)-2,6,7,8-tetrahydro-1,2,3,5,6-pentaazaacenaphthylene] | < 50 | < 50 | < 50 | < 50 | < 50 | < 50
COc1ccc(CN2CCc3n[nH]c4nc(NCCc5c[nH]c6ccc(Cl)cc56)nc2c34)cc1 [Compound 115, N-[2-(5-chloro-1H-indol-3-yl)ethyl]-6-(4-methoxybenzyl)-2,6,7,8-tetrahydro-1,2,3,5,6-pentaazaacenaphthylen-4-amine] | > 79 | > 79 | > 79 | > 79 | > 79 | > 79
COc1ccc(CN2CCc3n[nH]c4nc(NCCc5ccccc5)nc2c34)cc1 [Compound 116, 6-(4-methoxybenzyl)-N-(2-phenylethyl)-2,6,7,8-tetrahydro-1,2,3,5,6-pentaazaacenaphthylen-4-amine] | > 79 | > 79 | > 79 | > 79 | > 79 | > 79
COc1ccc(CN2CCc3n[nH]c4nc(NCc5ccc(Cl)cc5)nc2c34)cc1 [Compound 117, N-(4-chlorobenzyl)-6-(4-methoxybenzyl)-2,6,7,8-tetrahydro-1,2,3,5,6-pentaazaacenaphthylen-4-amine] | 50 to 79 | < 50 | 50 to 79 | 50 to 79 | < 50 | < 50
COc1ccc(CN2CCc3n[nH]c4nc(Nc5ccccc5)nc2c34)cc1 [Compound 118, 6-(4-methoxybenzyl)-N-phenyl-2,6,7,8-tetrahydro-1,2,3,5,6-pentaazaacenaphthylen-4-amine] | < 50 | < 50 | < 50 | < 50 | < 50 | < 50
COc1ccc(CN2CCc3n[nH]c4nc(Nc5ccc(N6CCN(C(=O)OCc7ccccc7)CC6)cc5)nc2c34)cc1 [Compound 119, benzyl 4-(4-{[6-(4-methoxybenzyl)-2,6,7,8-tetrahydro-1,2,3,5,6-pentaazaacenaphthylen-4-yl]amino}phenyl)piperazine-1-carboxylate] | > 79 | > 79 | > 79 | 50 to 79 | 50 to 79 | 50 to 79
COc1ccc(CN2CCc3n[nH]c4nc(Nc5ccc(N6CCN(C)CC6)cc5)nc2c34)cc1 [Compound 120, 6-(4-methoxybenzyl)-N-[4-(4-methylpiperazin-1-yl)phenyl]-2,6,7,8-tetrahydro-1,2,3,5,6-pentaazaacenaphthylen-4-amine] | > 79 | > 79 | > 79 | 50 to 79 | > 79 | > 79
c1cncc(CNc2nc3c4c(n[nH]c4n2)CCN3)c1 [Compound 121, N-(pyridin-3-ylmethyl)-2,6,7,8-tetrahydro-1,2,3,5,6-pentaazaacenaphthylen-4-amine] | < 50 | < 50 | < 50 | < 50 | < 50 | < 50
c1cc(N2CCN(c3nc4c5c(n[nH]c5n3)CCN4)CC2)ccn1 [Compound 122, 4-(4-pyridin-4-ylpiperazin-1-yl)-2,6,7,8-tetrahydro-1,2,3,5,6-pentaazaacenaphthylene] | < 50 | < 50 | < 50 | < 50 | < 50 | < 50
C1CCC(Nc2nc3c4c(n[nH]c4n2)CCN3)CC1 [Compound 123, N-cyclohexyl-2,6,7,8-tetrahydro-1,2,3,5,6-pentaazaacenaphthylen-4-amine] | < 50 | < 50 | < 50 | < 50 | < 50 | < 50
Fc1ccc(CCNc2nc3c4c(n[nH]c4n2)CCN3)cc1 [Compound 124, N-[2-(4-fluorophenyl)ethyl]-2,6,7,8-tetrahydro-1,2,3,5,6-pentaazaacenaphthylen-4-amine] | < 50 | < 50 | < 50 | < 50 | < 50 | 50 to 79
C1Cc2n[nH]c3nc(N4CCOCC4)nc(c23)N1 [Compound 125, 4-morpholin-4-yl-2,6,7,8-tetrahydro-1,2,3,5,6-pentaazaacenaphthylene] | < 50 | < 50 | < 50 | < 50 | < 50 | < 50
CN1CCC(Nc2nc3c4c(n[nH]c4n2)CCN3)CC1 [Compound 126, N-(1-methylpiperidin-4-yl)-2,6,7,8-tetrahydro-1,2,3,5,6-pentaazaacenaphthylen-4-amine] | < 50 | < 50 | < 50 | < 50 | < 50 | < 50
Fc1cccc(CNc2nc3c4c(n[nH]c4n2)CCN3)c1 [Compound 127, N-(3-fluorobenzyl)-2,6,7,8-tetrahydro-1,2,3,5,6-pentaazaacenaphthylen-4-amine] | > 79 | > 79 | > 79 | 50 to 79 | > 79 | > 79
c1ccc(CCNc2nc3c4c(n[nH]c4n2)CCN3)cc1 [Compound 128, N-(2-phenylethyl)-2,6,7,8-tetrahydro-1,2,3,5,6-pentaazaacenaphthylen-4-amine] | > 79 | > 79 | > 79 | > 79 | > 79 | > 79
